Assay results taken from ChEMBL document CHEMBL5360639, “Cannabidiol Analogue CIAC001 for the Treatment of Morphine-Induced Addiction by Targeting PKM2” (J Med Chem, 2023).
Active and inactive are the calls of the source. The calls are words filed in the database; no cut-off is given here.

Tests used:
[1] = Toxicity in BALB/c mouse assessed as effect on rubbing behavior at 20 mg/kg, ip measured administered once daily for 7 days and measured after 24 hrs by open field test; assay type: organism-based; settings: in vivo, 192 h
[2] = biological target: Pyruvate kinase PKM (Mus musculus) (UniProt P52480); assay: Competitive inhibition of CIAC001-P1 probe binding to PKM2 in mouse BV-2 cells at 20 uM pretreated for 2 hrs followed by UV light treatment and measured after 30 mins by silver staining based Streptavidin-pull down assay; assay type: cell-based; settings: time 2.5 hrs
Chain of Pyruvate kinase PKM (Mus musculus) (P52480 whole entry): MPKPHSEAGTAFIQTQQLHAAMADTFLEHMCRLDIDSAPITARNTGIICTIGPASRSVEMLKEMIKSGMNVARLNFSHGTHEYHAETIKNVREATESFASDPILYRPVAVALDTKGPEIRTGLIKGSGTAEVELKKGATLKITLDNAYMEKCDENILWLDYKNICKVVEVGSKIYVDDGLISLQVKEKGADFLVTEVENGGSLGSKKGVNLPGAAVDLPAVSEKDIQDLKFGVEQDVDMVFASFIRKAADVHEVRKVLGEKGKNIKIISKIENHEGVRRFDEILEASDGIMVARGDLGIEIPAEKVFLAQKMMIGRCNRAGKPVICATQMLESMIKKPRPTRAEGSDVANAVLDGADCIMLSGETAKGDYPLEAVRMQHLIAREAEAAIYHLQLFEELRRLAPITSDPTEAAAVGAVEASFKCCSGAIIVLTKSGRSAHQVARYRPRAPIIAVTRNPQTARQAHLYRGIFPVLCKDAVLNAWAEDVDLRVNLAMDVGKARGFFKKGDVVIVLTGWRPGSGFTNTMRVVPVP

BV-2 [3] = assay: Anti-neuroinflammatory activity in LPS-induced mouse BV-2 cells assessed as formation of amoeboid-shaped cells at 10 uM incubated for 24 hrs by inverted microscopic analysis; assay type: functional, cell-based
[4] = biological target: Pyruvate kinase PKM (Mus musculus) (UniProt P52480); assay: Competitive inhibition of CIAC001-P2 probe binding to PKM2 in mouse BV-2 cells at 20 uM pretreated for 2 hrs followed by UV light treatment and measured after 30 mins by silver staining based Streptavidin-pull down assay; assay type: cell-based; settings: time 2.5 hrs
Mus musculus [5] = assay: Anti-neuroinflammatory activity in naloxone precipitated morphine-induced ip dosed BALB/c mouse assessed as reduction in naloxone precipitated withdrawal jumps administered with morphine 3 times daily for 3 days and on day 4 for 3 hrs prior to compound addition for 30 mins before naloxone addition and measured after 15 mins; assay type: functional, organism-based; settings: dose 0.2-20 µg/kg, time 45.0 min
Mus musculus [6] = assay: Inhibition of morphine-induced Hif-1alpha overexpression in BALB/c mouse at 0.2 mg/kg, ip measured for 7 days; assay type: functional, organism-based; settings: time 7.0 day
BV-2 [7] = assay: Inhibition of LPS-induced PKM2 tetramer in mouse BV-2 cells at 10 uM; assay type: functional, cell-based
[8] = Toxicity in BALB/c mouse assessed as effect on respiratory rate at 20 mg/kg, ip measured on day 2 and 5; assay type: organism-based; settings: in vivo, 120 h, time 5 day
[9] = biological target: Pyruvate kinase PKM (Mus musculus) (UniProt P52480); assay: Activation of PKM2 in mouse BV-2 cells assessed as increase in ATP level at 10 uM measured for 6 hrs; assay type: cell-based; settings: filed as activator
[10] = Cytotoxicity against mouse BV-2 cells assessed as reduction in cell viability by crystal violet staining based assay; assay type: toxicity
Mus musculus [11] = assay: Anti-neuroinflammatory activity in morphine-induced BALB/c mouse assessed as inhibition of IL-1beta expression in VTA region 0.2 mg/kg, ip; assay type: functional, organism-based
BV-2 [12] = assay: Anti-neuroinflammatory activity in mouse BV-2 cells assessed as inhibition of LPS-induced NO production incubated for 24 hrs by microplate reader analysis; assay type: functional, cell-based; settings: BV-2, 24 h
BV-2 [13] = assay: Anti-neuroinflammatory activity in LPS-induced mouse BV-2 cells assessed as reduction in […] mRNA expression at 10 uM incubated for 24 hrs by qRT-PCR analysis; assay type: functional, cell-based
[14] = Toxicity in BALB/c mouse assessed as rewarding effect at 20 mg/kg, ip measured after 6 days by CPP analysis; assay type: organism-based; settings: in vivo, 144 h, time 6 day
BV-2 [15] = assay: Inhibition of LPS-induced nuclear translocation in mouse BV-2 cells incubated for 6 hrs by Western blot analysis; assay type: functional, cell-based
[16] = Therapeutic index, ratio of IC50 for cytotoxicty against mouse BV-2 cells assessed as reduction in cell viability by crystal violet staining based assay to IC50 for nti-neuroinflammatory activity in mouse BV-2 cells assessed as inhibition of LPS-induced NO production; assay type: toxicity; settings: read-out: Ratio IC50
Mus musculus [17] = assay: Anti-neuroinflammatory activity in morphine-induced BALB/c mouse assessed as inhibition of IL-1beta expression in mPFC region 0.2 mg/kg, ip; assay type: functional, organism-based
BV-2 [18] = assay: Anti-neuroinflammatory activity in LPS-induced mouse BV-2 cells assessed as reduction in TNF-alpha mRNA expression by qRT-PCR analysis; assay type: functional, cell-based; settings: dose 1-10 µM
Mus musculus [19] = assay: Anti-neuroinflammatory activity in morphine-induced BALB/c mouse assessed as decrease in conditioned place preference behavior 0.2 mg/kg, ip pretreated for 6 days followed by morphine induction and measured on days 5 to 9 days; assay type: functional, organism-based; settings: time 11-15 day
BV-2 [20] = assay: Inhibition of LPS-induced LDH release in mouse BV-2 cells at 10 uM incubated for 6 hrs; assay type: functional, cell-based
BV-2 [21] = assay: Anti-neuroinflammatory activity in LPS-induced mouse BV-2 cells assessed as reduction in IL-6 mRNA expression by qRT-PCR analysis; assay type: functional, cell-based; settings: dose 1-10 µM
[22] = biological target: Cannabinoid receptor (Homo sapiens) (UniProt P34972+P21554); assay: Agonist activity at CB1/CB2 (unknown origin) receptor expressed in HEK293 cells assessed as inhibition of forskolin-stimulated cAMP accumulation incubated for 2 hrs by microplate reader analysis; assay type: functional, cell-based; settings: filed as agonist
Chain of Cannabinoid receptor (Homo sapiens) (P21554 whole entry, looked up): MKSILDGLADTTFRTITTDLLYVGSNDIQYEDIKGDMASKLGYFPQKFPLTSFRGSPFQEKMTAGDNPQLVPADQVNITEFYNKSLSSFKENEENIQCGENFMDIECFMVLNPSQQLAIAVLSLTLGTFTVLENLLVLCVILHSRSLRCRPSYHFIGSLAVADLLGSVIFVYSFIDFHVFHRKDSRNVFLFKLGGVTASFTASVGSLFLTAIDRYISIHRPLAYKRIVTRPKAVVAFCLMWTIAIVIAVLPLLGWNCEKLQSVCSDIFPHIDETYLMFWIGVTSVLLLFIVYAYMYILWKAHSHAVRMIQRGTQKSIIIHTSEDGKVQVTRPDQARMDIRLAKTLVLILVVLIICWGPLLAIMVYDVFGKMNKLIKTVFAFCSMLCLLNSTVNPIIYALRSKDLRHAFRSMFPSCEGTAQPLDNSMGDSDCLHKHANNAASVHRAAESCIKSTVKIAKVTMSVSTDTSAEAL
Chain of Cannabinoid receptor (Homo sapiens) (P34972 whole entry, looked up): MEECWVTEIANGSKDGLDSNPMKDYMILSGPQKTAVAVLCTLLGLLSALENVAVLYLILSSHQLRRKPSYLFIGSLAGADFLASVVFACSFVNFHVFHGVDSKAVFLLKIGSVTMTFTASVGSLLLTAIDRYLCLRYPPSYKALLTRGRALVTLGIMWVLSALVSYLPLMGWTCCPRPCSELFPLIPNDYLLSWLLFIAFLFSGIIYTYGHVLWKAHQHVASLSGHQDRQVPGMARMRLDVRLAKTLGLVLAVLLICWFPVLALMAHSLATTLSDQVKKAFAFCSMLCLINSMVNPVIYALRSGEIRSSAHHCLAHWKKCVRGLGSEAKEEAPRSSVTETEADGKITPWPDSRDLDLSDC

[23] = Tmax in BALB/c mouse plasma at 10 mg/kg, po measured upto 4 hrs by mS-HPLC analysis; assay type: ADME, organism-based
[24] = MRT in BALB/c mouse at 10 mg/kg, po measured upto 4 hrs by mS-HPLC analysis; assay type: ADME, organism-based; settings: in vivo
[25] = Cmax in BALB/c mouse at 10 mg/kg, po measured upto 4 hrs by mS-HPLC analysis; assay type: ADME, organism-based; parameters: time < 4 hrs, dose 10 mg/kg, route po; settings: in vivo
Mus musculus [26] = assay: Anti-neuroinflammatory activity in morphine-induced BALB/c mouse assessed as inhibition of behavioral sensitization at 0.2 mg/kg, ip administered once daily for 7 days; assay type: functional, organism-based; settings: time 7.0 day
Mus musculus [27] = assay: Anti-neuroinflammatory activity in morphine-induced BALB/c mouse assessed as inhibition of Iba1 expression in mPFC region 0.2 mg/kg, ip; assay type: functional, organism-based
BV-2 [28] = assay: Anti-neuroinflammatory activity in LPS-induced mouse BV-2 cells assessed as reduction in […] mRNA expression by qRT-PCR analysis; assay type: functional, cell-based; settings: dose 1-10 µM
[29] = Half life in BALB/c mouse at 10 mg/kg, po measured upto 4 hrs by mS-HPLC analysis; assay type: ADME, organism-based; settings: in vivo
[30] = Ratio of drug concentration in blood to plasma in BALB/c mouse at 10 mg/kg, po measured at 3 hrs; assay type: ADME, organism-based; settings: in vivo
[31] = Toxicity in BALB/c mouse assessed as assessed as effect on body weight at 20 mg/kg, ip measured administered once daily for 7 days and; assay type: organism-based; settings: in vivo, 168 h, time 7 day
BV-2 [32] = assay: Inhibition of LPS-induced LDHA mRNA overexpression in mouse BV-2 cells at 10 uM incubated for 6 hrs; assay type: functional, cell-based
BV-2 [33] = assay: Anti-neuroinflammatory activity in LPS-induced mouse BV-2 cells assessed as reduction in IL-1beta mRNA expression at 10 uM incubated for 24 hrs by qRT-PCR analysis; assay type: functional, cell-based
BV-2 [34] = assay: Inhibition of LPS-induced PKM2 monomer in mouse BV-2 cells at 10 uM; assay type: functional, cell-based
[35] = Tmax in BALB/c mouse brain at 10 mg/kg, po measured upto 4 hrs by mS-HPLC analysis; assay type: ADME, organism-based
[36] = AUC (0 to t) in BALB/c mouse at 10 mg/kg, po measured upto 4 hrs by mS-HPLC analysis; assay type: ADME, organism-based; settings: in vivo
[37] = biological target: Pyruvate kinase PKM (Mus musculus) (UniProt P52480); assay: Binding affinity to PKM2 in mouse BV-2 cells at 20 uM by Western blot analysis; assay type: cell-based
[38] = Toxicity in BALB/c mouse assessed as effect on locomotor activity at 20 mg/kg, ip measured administered once daily for 7 days and measured after 24 hrs by open field test; assay type: organism-based; settings: in vivo, 192 h
Mus musculus [39] = assay: Anti-neuroinflammatory activity in morphine-induced BALB/c mouse assessed as inhibition of IL-1beta expression in NAc region 0.2 mg/kg, ip; assay type: functional, organism-based
[40] = biological target: Pyruvate kinase PKM (Mus musculus) (UniProt P52480); assay: Binding affinity to PKM1 in mouse BV-2 cells at 20 uM by Western blot analysis; assay type: cell-based
[41] = biological target: Pyruvate kinase PKM (Mus musculus) (UniProt P52480); assay: Binding affinity to PKM2 in mouse BV-2 cells assessed as thermal stabilization by measuring change in melting temperature incubated for 2 hrs by Western blot analysis; assay type: cell-based
Pyruvate kinase PKM = Pyruvate kinase PKM (Mus musculus, UniProt P52480); assay: Binding affinity to PKM2 in mouse BV-2 cells by Western blot analysis; assay type: cell-based
Chain of Pyruvate kinase PKM (P52480 whole entry): as the sequence (P52480 whole entry) above

[42] = Toxicity in BALB/c mouse assessed as effect on grooming behavior at 20 mg/kg, ip measured administered once daily for 7 days and measured after 24 hrs by open field test; assay type: organism-based; settings: in vivo, 192 h
BV-2 [43] = assay: Anti-neuroinflammatory activity in LPS-induced mouse BV-2 cells assessed as reduction in iNOS mRNA expression at 10 uM incubated for 24 hrs by qRT-PCR analysis; assay type: functional, cell-based
[44] = Toxicity in BALB/c mouse assessed as cognitive impairment by measuring time spent on new arm at 20 mg/kg, ip administered once daily for 3 days and measured after 45 mins by Y maze test; assay type: organism-based; settings: in vivo, 72.75 h, time 4365 min
Mus musculus [45] = assay: Anti-neuroinflammatory activity in morphine-induced BALB/c mouse assessed as […] in locomotor activity 0.2 mg/kg, ip administered once daily for 7 days and measured after 60 mins; assay type: functional, organism-based; settings: time 169.0 hrs
[46] = Toxicity in BALB/c mouse assessed as cognitive impairment by measuring time spent on new arm at 10 mg/kg, ip administered once daily for 3 days and measured after 45 mins by Y maze test; assay type: organism-based; settings: in vivo, 72.75 h, time 4365 min

## C=C(C)[C@@H]1CCC(C)=C[C@H]1c1c(O)cc(C(C)n2nccn2)cc1O (some centres undefined)
[1]
  Activity: Non-Toxic
[2]
  inhibition: Active
BV-2 [3]
  Activity: Active
[4]
  inhibition: Active
Mus musculus [5]
  Activity: Dose-Dependent Effect
Mus musculus [6]
  inhibition: Active
BV-2 [7]
  inhibition: Active
[8]
  Activity: Non-Toxic
[9]
  Activity: Active
[10]
  IC50: 57.8 µM
Mus musculus [11]
  Activity: Active
BV-2 [12]
  IC50: 2.5 µM
BV-2 [13]
  Activity: Active
[14]
  Activity: Non-Toxic
BV-2 [15]
  inhibition: Active
[16]
  selectivity ratio: 23.1
Mus musculus [17]
  Activity: Active
BV-2 [18]
  Activity: Dose-Dependent Effect
Mus musculus [19]
  Activity: Active
BV-2 [20]
  inhibition: Active
BV-2 [21]
  Activity: Dose-Dependent Effect
[22]
  Activity: Active
[23]
  Tmax: 18 min
[24]
  MRT: 54 min
[25]
  Cmax: 175 ng/g
Mus musculus [26]
  Activity: Active
Mus musculus [27]
  Activity: Active
BV-2 [28]
  Activity: Dose-Dependent Effect
[29]
  half-life: 48 min
[30]
  Ratio: < 200%
[31]
  Activity: Non-Toxic
BV-2 [32]
  inhibition: Active
BV-2 [33]
  Activity: Active
BV-2 [34]
  inhibition: Active
[35]
  Tmax: 30 min
[36]
  AUCt: 172.8 ng·h/g
[37]
  Activity: Active
[38]
  Activity: Non-Toxic
Mus musculus [39]
  Activity: Active
[40]
  Activity: Active
[41]
  ΔTm: 3.9 °C
Pyruvate kinase PKM
  Kd: 2.2 µM
[42]
  Activity: Non-Toxic
BV-2 [43]
  Activity: Active
[44]
  Activity: Non-Toxic
Mus musculus [45]
  Activity: Active

## C#CCOc1cc(CCCCC)cc(O)c1[C@@H]1C=C(C)CC[C@H]1C(=C)C
[10]
  IC50: 65 µM
BV-2 [12]
  IC50: 99.6 µM
[16]
  selectivity ratio: 1.2

## C=C(C)[C@@H]1CCC(C)=C[C@H]1c1c(O)cc(C(C)n2ccnn2)cc1O (some centres undefined)
[10]
  IC50: 77.1 µM
BV-2 [12]
  IC50: 35.9 µM
[16]
  selectivity ratio: 2.1

## C=CCOc1cc(CCCCC)cc(O)c1[C@@H]1C=C(C)CC[C@H]1C(=C)C
[10]
  IC50: 71.5 µM
BV-2 [12]
  IC50: 59.8 µM
[16]
  selectivity ratio: 0.7

## CCCCCc1cc(O)c2c(c1)OC(C)(C)[C@@H]1CCC(C)=C[C@@H]21 [DRONABINOL]
[46]
  Activity: Toxic

## C=C(C)[C@@H]1CCC(C)=C[C@H]1c1c(O)cc(CCCC)cc1O
[10]
  IC50: 11.1 µM
BV-2 [12]
  IC50: 5 µM
[16]
  selectivity ratio: 2.2
